The target of test [1] is EGFR (UniProt P00533). As to conditions: concentration not given here.
Test [2] has as its target CDK2 (UniProt P24941). Kind of test: Enzyme Assay.

EGFR, sequence (P00533 whole entry, looked up): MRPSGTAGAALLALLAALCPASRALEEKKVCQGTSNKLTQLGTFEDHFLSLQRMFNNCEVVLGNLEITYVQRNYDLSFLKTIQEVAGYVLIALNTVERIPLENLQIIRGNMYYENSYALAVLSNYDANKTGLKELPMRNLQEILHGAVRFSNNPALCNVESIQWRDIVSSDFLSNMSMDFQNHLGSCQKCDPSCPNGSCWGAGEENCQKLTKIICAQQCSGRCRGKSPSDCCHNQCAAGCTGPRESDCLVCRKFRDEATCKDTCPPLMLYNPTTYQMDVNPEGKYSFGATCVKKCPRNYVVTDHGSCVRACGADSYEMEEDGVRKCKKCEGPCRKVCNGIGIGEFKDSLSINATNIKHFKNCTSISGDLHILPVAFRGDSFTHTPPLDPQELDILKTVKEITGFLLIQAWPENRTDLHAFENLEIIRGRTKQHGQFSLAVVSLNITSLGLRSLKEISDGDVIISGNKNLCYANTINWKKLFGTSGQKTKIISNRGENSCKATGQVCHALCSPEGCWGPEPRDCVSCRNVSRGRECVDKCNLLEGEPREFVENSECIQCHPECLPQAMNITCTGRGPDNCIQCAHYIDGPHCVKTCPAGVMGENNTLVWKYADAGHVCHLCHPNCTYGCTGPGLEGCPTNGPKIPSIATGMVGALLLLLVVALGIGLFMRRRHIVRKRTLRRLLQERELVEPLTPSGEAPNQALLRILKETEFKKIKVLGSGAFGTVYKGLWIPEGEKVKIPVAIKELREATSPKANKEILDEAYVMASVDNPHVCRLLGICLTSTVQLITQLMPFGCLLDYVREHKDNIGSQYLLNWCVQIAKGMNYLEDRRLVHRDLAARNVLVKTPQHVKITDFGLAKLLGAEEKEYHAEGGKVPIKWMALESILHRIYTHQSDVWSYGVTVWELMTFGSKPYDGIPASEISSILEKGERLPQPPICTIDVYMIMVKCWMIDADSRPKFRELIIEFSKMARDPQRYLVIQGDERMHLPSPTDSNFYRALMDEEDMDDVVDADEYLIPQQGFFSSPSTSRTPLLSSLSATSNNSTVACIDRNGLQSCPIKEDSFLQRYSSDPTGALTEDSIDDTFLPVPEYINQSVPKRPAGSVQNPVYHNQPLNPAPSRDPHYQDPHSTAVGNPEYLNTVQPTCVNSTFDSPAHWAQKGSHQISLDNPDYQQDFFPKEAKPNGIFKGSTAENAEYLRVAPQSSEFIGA

`COc1ccccc1-c1cc(Nc2ccc(NC(=O)Cc3ccccc3)cc2)ncn1` registered an inhibition in test [1] of 30 to 50%. The IC50 in test [2] lay within 1000 to 10000 nM.
For `COc1ccccc1-c1cc(Nc2ccc(NC(=O)C3CCCN(C)C3)cc2)ncn1` (configuration not stated) the same measures were > 80% and 1000 to 10000 nM.
Turning to `CC(C)Oc1ccccc1-c1cc(Nc2ccc(NC(=O)c3ccc(N)cc3)cc2)ncn1`, in test [1], the inhibition lay within 50 to 80%. In test [2], this compound showed an IC50 of 1 to 1000 nM.
For `COc1ccccc1-c1cc(Nc2ccc(NC(=O)C3(N)CCCCC3)cc2)ncn1` the same measures were > 80% and 1000 to 10000 nM.
For `CCCS(=O)(=O)Nc1cc(Nc2cc(-c3cccc(N)c3)ncn2)ccc1C`, in that order: > 80% and 1 to 1000 nM.
`COc1ccccc1-c1cc(Nc2ccc(N)cc2)ncn1`: in test [1], the inhibition is > 80%. This compound returned an IC50 in test [2] of 1 to 1000 nM.
Turning to `NCCCOc1ccccc1-c1cc(Nc2ccc(NC(=O)c3ccc(N)cc3)cc2)ncn1`, the inhibition in test [1] is > 80%. In test [2], this compound showed an IC50 of 1000 to 10000 nM.
For `Cc1ccc(Nc2cc(-c3cccc(N)c3)ncn2)cc1NS(=O)(=O)c1ccccc1` the same measures were 50 to 80% and 1000 to 10000 nM.
With `CN[C@H](C(=O)Nc1ccc(Nc2cc(-c3ccccc3OC)ncn2)cc1)c1ccccc1`, in test [1], the inhibition was > 80%. The same compound registered an IC50 in test [2] of 1000 to 10000 nM.
For `COc1ccccc1-c1cc(Nc2ccc(NC(=O)[C@H]3CCCCN3)cc2)ncn1`, in that order: > 80% and 1000 to 10000 nM.
For `COc1ccccc1-c1cc(Nc2ccc(NC(=O)[C@@H]3Cc4ccccc4CN3)cc2)ncn1`, in that order: > 80% and 1000 to 10000 nM.
For `COc1ccccc1-c1cc(Nc2ccc(NC(=O)c3ccc(N4CCN(C)CC4)cc3)cc2)ncn1` the same measures were 50 to 80% and 1000 to 10000 nM.
`COc1ccccc1-c1cc(Nc2ccc(NC(=O)[C@@H]3CCCCN3)cc2)ncn1`: in test [1], the inhibition is > 80%. Further, in test [2], the IC50 lay in the range of 1000 to 10000 nM.
Turning to `COc1ccccc1-c1cc(Nc2ccc(NC(=O)C3(N)CCCC3)cc2)ncn1`, the inhibition in test [1] is > 80%. Also, the IC50 in test [2] was in the range of 1000 to 10000 nM.
For `NC(=O)c1ccc(Nc2cc(-c3ccccc3OCc3ccccc3)ncn2)cc1`, in that order: 50 to 80% and 1 to 1000 nM.
For `COc1ccccc1-c1cc(Nc2ccc(NC(=O)CCN)cc2)ncn1` the same measures were > 80% and 1000 to 10000 nM.
With `COc1ccccc1-c1cc(Nc2ccc(NC(=O)c3cn(C)cn3)cc2)ncn1`, in test [1], the inhibition was 50 to 80%. In test [2], this compound showed an IC50 of 1000 to 10000 nM.
Compound `COc1ccccc1-c1cc(Nc2ccc(NS(C)(=O)=O)cc2)ncn1` came in with an inhibition in test [1] of 50 to 80%. In test [2], this compound had an IC50 of 1 to 1000 nM.
`COc1ccccc1-c1cc(Nc2ccc(NC(=O)[C@H]3CCCN3)cc2)ncn1`: the inhibition in test [1] was > 80%. The IC50 in test [2] lay in the range of 1000 to 10000 nM.
With `COc1ccccc1-c1cc(Nc2ccc(C(=O)N[C@@H]3CCCC[C@H]3N)cc2)ncn1.COc1ccccc1-c1cc(Nc2ccc(C(=O)N[C@H]3CCCC[C@@H]3N)cc2)ncn1`, the inhibition in test [1] is 50 to 80%. Besides, the IC50 in test [2] lay within 1000 to 10000 nM.
For `Cc1ccc(Nc2cc(-c3cccc(N)c3)ncn2)cc1NS(C)(=O)=O`, in that order: > 80% and 1 to 1000 nM.

The values are drawn from the Kinase Knowledgebase extract (Sharma et al. 2016).
